Measured values: patent US20060069132A1, “Azolecarboxamide herbicides” (priority 2004, published 2006)

Experiments:
[1] = tested on: barnyardgrass; assay: Test A pre-/postemergence herbicide test; type: in vivo, Echinochloa crus-galli
Summary of the method: (§1)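 Visual injury scores on a 0–100 scale (100 = complete control) taken about ten days post-treatment in greenhouse against untreated controls; dash means no result. Treatments: preemergence soil spray and postemergence spray to runoff on one- to two-leaf plants 2 to 10 cm tall, surfactant-containing formulation.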

[2] = tested on: large crabgrass; assay: Test A pre-/postemergence herbicide test; type: in vivo, Digitaria sanguinalis
Summary of the method: as §1

[3] = tested on: giant foxtail; assay: Test A pre-/postemergence herbicide test; type: in vivo, Setaria faberi
Summary of the method: as §1

[4] = tested on: morningglory; assay: Test A pre-/postemergence herbicide test; type: in vivo, Ipomoea spp.
Summary of the method: as §1

[5] = tested on: redroot pigweed; assay: Test A pre-/postemergence herbicide test; type: in vivo, Amaranthus retroflexus
Summary of the method: as §1

[6] = tested on: velvetleaf; assay: Test A pre-/postemergence herbicide test; type: in vivo, Abutilon theophrasti
Summary of the method: as §1

[7] = tested on: barnyardgrass; assay: Test B pre-/postemergence herbicide test; type: in vivo, Echinochloa crus-galli; conditions: for Barnyardgrass plant response rating: postemergence
Summary of the method: (§2)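 Species tested were Echinochloa crus-galli, Ipomoea coccinea, Xanthium strumarium and Oryza sativa, treated both before emergence and at the 1- to 4-leaf stage; rice and barnyardgrass were also tested under flooding at 2 leaves. Greenhouse incubation lasted 13–15 days before visual 0–100 scoring.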

[8] = tested on: Surinam grass; assay: Test B pre-/postemergence herbicide test; type: in vivo, Urochloa decumbens; conditions: for Surinam Grass plant response rating: postemergence
Summary of the method: (§3)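 Evaluation is visual, comparing treated with control plants on a scale where 0 means no effect and 100 means full control. Treatments were preemergence, or postemergence on seedlings 2–18 cm tall, and held 13–15 days in the greenhouse.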

[9] = tested on: cocklebur; assay: Test B pre-/postemergence herbicide test; type: in vivo, Xanthium strumarium; conditions: for Cocklebur plant response rating: postemergence
Summary of the method: as §2

[10] = tested on: corn; assay: Test B pre-/postemergence herbicide test; type: in vivo, Zea mays; conditions: for Corn plant response rating: postemergence
Summary of the method: as §3

[11] = tested on: large crabgrass; assay: Test B pre-/postemergence herbicide test; type: in vivo, Digitaria sanguinalis; conditions: for Crabgrass, Large plant response rating: postemergence
Summary of the method: as §3

[12] = tested on: giant foxtail; assay: Test B pre-/postemergence herbicide test; type: in vivo, Setaria faberi; conditions: for Foxtail, Giant plant response rating: postemergence
Summary of the method: as §3

[13] = tested on: lambsquarters; assay: Test B pre-/postemergence herbicide test; type: in vivo, Chenopodium album; conditions: for Lambsquarters plant response rating: postemergence
Summary of the method: as §3

[14] = tested on: morningglory; assay: Test B pre-/postemergence herbicide test; type: in vivo, Ipomoea coccinea; conditions: for Morningglory plant response rating: postemergence
Summary of the method: as §2

[15] = tested on: pigweed; assay: Test B pre-/postemergence herbicide test; type: in vivo, Amaranthus retroflexus; conditions: for Pigweed plant response rating: postemergence
Summary of the method: as §3

[16] = tested on: rice; assay: Test B pre-/postemergence herbicide test; type: in vivo, Oryza sativa; conditions: 0 = no effect, 100 = complete control, preemergence
Summary of the method: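 Plants compared with untreated controls 13–15 days post-treatment and given a visual 0–100 injury score. Applications: preemergence to seeds; postemergence at 1- to 4-leaf (2–18 cm); paddy species flooded, 2-leaf stage. Vehicle non-phytotoxic, surfactant included.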

[17] = tested on: velvetleaf; assay: Test B pre-/postemergence herbicide test; type: in vivo, Abutilon theophrasti; conditions: for Velvetleaf plant response rating: postemergence
Summary of the method: as §3

[18] = tested on: blackgrass; assay: Test B postemergence herbicide test; type: in vivo, Alopecurus myosuroides; conditions: postemergence
Summary of the method: (§4)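 Plants grow to 1- to 4-leaf stage (2–18 cm) for postemergence spraying, or to 2-leaf stage for the paddy test. Formulated compound is applied. Greenhouse holding lasts 13–15 days. Response is scored visually relative to controls, 0 no effect to 100 complete control; a dash means no result.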

[19] = tested on: wheat; assay: Test B postemergence herbicide test; type: in vivo, Triticum aestivum; design: key to Wheat plant response rating: 0 = no effect, 100 = complete control; conditions: postemergence
Summary of the method: (§5)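 After treating 2-leaf paddy plants or 2–18 cm postemergence plants (1 to 4 leaves) with formulated chemical, researchers kept them in a greenhouse for 13–15 days. Effects were judged visually versus controls: 0 indicates none, 100 total control.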

[20] = tested on: wild oat; assay: Test B postemergence herbicide test; type: in vivo, Avena fatua; conditions: postemergence
Summary of the method: as §5

[21] = tested on: rice; assay: Test B flooded paddy test; type: in vivo, Oryza sativa; conditions: 1000 g ai/ha, scale 0 to 100 (0 no effect, 100 complete control)
Summary of the method: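 Each value is a visual 0–100 response rating taken against controls 13 to 15 days after treatment in the greenhouse. Plants received formulated chemical postemergence at the 1- to 4-leaf stage or, in flooded paddy, at the 2-leaf stage.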

[22] = tested on: small flower umbrella sedge; assay: Test B flooded paddy test; type: in vivo, Cyperus difformis; conditions: 1000 g ai/ha, scale 0 to 100 (0 no effect, 100 complete control)
Summary of the method: as §4

[23] = tested on: ducksalad; assay: Test B flooded paddy test; type: in vivo, Heteranthera limosa; conditions: 1000 g ai/ha, scale 0 to 100 (0 no effect, 100 complete control)
Summary of the method: as §4

[24] = tested on: barnyardgrass; assay: Test B flooded paddy test; type: in vivo, Echinochloa crus-galli; conditions: 1000 g ai/ha, scale 0 to 100 (0 no effect, 100 complete control)
Summary of the method: as §4

[25] = Postemergence, 500 g ai/ha, 0 to 100 scale, 0 no effect, 100 complete control
[26] = Postemergence, 2000 g ai/ha, 0 to 100 scale, 0 no effect, 100 complete control
[27] = Preemergence, 2000 g ai/ha, visual rating, 0 to 100 scale (0 no effect, 100 complete control)
[28] = preemergence, 500 g ai/ha, visual injury, 0 to 100 scale (0 no effect, 100 complete control)
[29] = 125 g ai/ha, 0 = no effect, 100 = complete control, preemergence
[30] = 500 g ai/ha, visual rating, 0 = no effect, 100 = complete control, preemergence
[31] = 125 g ai/ha, visual rating, scale 0 (no effect) to 100 (complete control)
[32] = 500 g ai/ha, scale 0 to 100, 0 is no effect, 100 is complete control

CCn1nc(C(C)(C)C)cc1C(=O)Nc1cc(C(N)=O)ccc1F [Compound 271]
Barnyardgrass plant response rating [1, 25]: 10
Plant response rating, Barnyardgrass [1, 26]: 30
Barnyardgrass plant response rating [1, 27]: 75
Barnyardgrass plant response rating [1, 28]: 5
Crabgrass, Large plant response rating [2, 25]: 10
Plant response rating, Crabgrass, Large [2, 26]: 10
Crabgrass, Large plant response rating [2, 27]: 15
Crabgrass, Large plant response rating [2, 28]: 0
Foxtail, Giant plant response rating [3, 25]: 10
Plant response rating, Foxtail, Giant [3, 26]: 20
Foxtail, Giant plant response rating [3, 27]: 70
Foxtail, Giant plant response rating [3, 28]: 0
Morningglory plant response rating [4, 25]: 10
Plant response rating, Morningglory [4, 26]: 30
Morningglory plant response rating [4, 27]: 0
Morningglory plant response rating [4, 28]: 0
Pigweed plant response rating [5, 25]: 45
Plant response rating, Pigweed [5, 26]: 90
Pigweed plant response rating [5, 27]: 60
Pigweed plant response rating [5, 28]: 60
Velvetleaf plant response rating [6, 25]: 10
Plant response rating, Velvetleaf [6, 26]: 40
Velvetleaf plant response rating [6, 27]: 5
Velvetleaf plant response rating [6, 28]: 0
Barnyardgrass plant response rating (0 to 100 scale) [7, 29]: 0
Plant response rating, Barnyardgrass [7, 30]: 0
Barnyardgrass plant response rating [7, 31]: 0
Barnyardgrass plant response rating [7, 32]: 0
Surinam Grass plant response rating (0 to 100 scale) [8, 29]: 0
Plant response rating, Surinam Grass [8, 30]: 0
Surinam Grass plant response rating [8, 31]: 0
Surinam Grass plant response rating [8, 32]: 0
Cocklebur plant response rating (0 to 100 scale) [9, 29]: 0
Plant response rating, Cocklebur [9, 30]: 0
Cocklebur plant response rating [9, 31]: 0
Cocklebur plant response rating [9, 32]: 0
Corn plant response rating (0 to 100 scale) [10, 29]: 0
Plant response rating, Corn [10, 30]: 10
Corn plant response rating [10, 31]: 0
Corn plant response rating [10, 32]: 20
Crabgrass, Large plant response rating (0 to 100 scale) [11, 29]: 0
Plant response rating, Crabgrass, Large [11, 30]: 0
Crabgrass, Large plant response rating [11, 31]: 0
Crabgrass, Large plant response rating [11, 32]: 0
Foxtail, Giant plant response rating (0 to 100 scale) [12, 29]: 0
Plant response rating, Foxtail, Giant [12, 30]: 0
Foxtail, Giant plant response rating [12, 31]: 0
Foxtail, Giant plant response rating [12, 32]: 0
Lambsquarters plant response rating (0 to 100 scale) [13, 29]: 0
Plant response rating, Lambsquarters [13, 30]: 60
Lambsquarters plant response rating [13, 31]: 10
Lambsquarters plant response rating [13, 32]: 60
Morningglory plant response rating (0 to 100 scale) [14, 29]: 0
Plant response rating, Morningglory [14, 30]: 0
Morningglory plant response rating [14, 31]: 0
Morningglory plant response rating [14, 32]: 0
Pigweed plant response rating (0 to 100 scale) [15, 29]: 0
Plant response rating, Pigweed [15, 30]: 20
Pigweed plant response rating [15, 31]: 50
Pigweed plant response rating [15, 32]: 80
Rice plant response rating (0 to 100 scale) ([16]; 125 g ai/ha): 0
Plant response rating, Rice ([16]; 500 g ai/ha, visual rating): 0
Velvetleaf plant response rating (0 to 100 scale) [17, 29]: 0
Plant response rating, Velvetleaf [17, 30]: 0
Velvetleaf plant response rating [17, 31]: 0
Velvetleaf plant response rating [17, 32]: 0
Blackgrass plant response rating [18, 31]: 10
Blackgrass plant response rating [18, 32]: 20
Wheat plant response rating [19, 31]: 30
Wheat plant response rating [19, 32]: 30
Oat, Wild plant response rating [20, 31]: 20
Oat, Wild plant response rating [20, 32]: 30
Rice plant response rating [21]: 20
Sedge, Umbrella plant response rating [22]: 40
Ducksalad plant response rating [23]: 40
Barnyardgrass plant response rating [24]: 0
